Laboratory results from PMC10327353 (Breast Cancer Research : BCR, 2023).
Where two headings read alike, the source gives them in different places.

Legend:
BCRP = target: T1, BCRP (Homo sapiens, UniProt Q9UNQ0); test: BCRP efflux ratio, bi-directional transport assay; assay type: in vitro ADME
T1 construct: endogenous in cells; host or cells: Caco-2

P-gp-BCRP = P-gp-BCRP efflux ratio, cellular transport assay; assay type: in vitro ADME, human
Method: A discussion of the structure–activity relationship (SAR) cumulated in the design of DZD1516 (Fig. 1) is as follows. The HER2 inhibitory potency screening for SAR development was performed using HER2 and EGFR enzymatic assays. The cellular activity was evaluated in HER2+ cell line BT474C1 by measuring pHER2 and antiproliferation activities. Cellular transport assays measuring the permeability and efflux ratio of compounds in cells expressing human P-gp (MDR1) and BCRP were used to provide essential information for assessing their BBB penetration potential.

[1] = In vivo CNS-PK study in monkey; details: female, cynomolgus monkey, CSF (relative to unbound plasma/blood), single PO dose of DZD1516 30 mg/kg
Method: The ability of DZD1516 and DZ2678 to cross the BBB in female Wistar Han rat and female Cynomolgus monkey was studied by assessing the free brain-to-plasma ratio (Kp,uu,brain) and CSF-to-free plasma ratio (Kp,uu,CSF). Total brain-to-blood ratio (Kp,brain) and CSF-to-blood ratio (Kp,CSF) were measured from six time points after oral administration. Free fractions of DZD1516 and DZ2678 in the biological matrix were determined by in vitro plasma and brain binding assay.
Kp,brain= AUCbrain/AUCblood. Kp,CSF was the average of the CSF-to-blood ratios at the evaluated time points. Kp,uu,brain= Kp,brain× fu,brain/fu,blood; Kpuu,CSF= Kp,CSF/fu,blood.
Three female Cynomolgus monkeys were administered with a single PO dose of DZD1516 at 30 mg/kg. The PO dosing formulation was a suspension in 0.5% HPMC E5 in water (w/v). Plasma and CSF samples were collected at 0.5, 1, 2, 4, 8, and 24 hrs post-dose. The concentrations of DZD1516 and metabolite DZ2678 in monkey plasma and CSF were determined by the validated LC-MS/MS method.

[2] = test system: BT474C1-Luci Mono1 BM xenograft; test: BM (brain metastasis) BT474C1-Luci Mono1 xenograft model; assay type: in vivo, nude mice
Method: The BM model was established by intracerebral (ICB) injection of 4 µl of cell suspension containing 3 × 10^5 cells into each mouse following similar procedures published (30). In brieft, 17β- ESTRADIOL (90-day release 0.36 mg/pellet) were injected subcutaneously 24 hrs before cell inoculation. Under anesthesia, a sagittal incision (approximately 1 cm long) was made over the parieto-occipital bone using a sterile scalpel. Then a hole was punctured on the skull at 2.5 mm to the right of the bregma and 1 mm anterior to the coronal suture using a sterile 25-gauge sharp drill. […] The bioluminescent signals of the implanted cells were measured by the Xenogen IVIS spectrum imaging system (PerkinElmer, USA) to monitor tumor growth. […]
In both BM and LM models, the day of randomization was defined as Day 0 and the treatment was started one day after randomization. The bioluminescence signals and body weight of the mice were measured once weekly. Relative bioluminescence intensity on a specific day was calculated by dividing the bioluminescence intensity on that day by the bioluminescence intensity on Day 0. The tumour growth inhibition (TGI) was calculated by formula: TGI (%) = (1-(relative bioluminescence intensity of treated group)/(relative bioluminescence intensity of control group)) x 100.Establishment of SC model

[3] = Phase 1 study: plasma pharmacokinetics; assay type: in vivo, human; details: for AUC(0-t): 250 mg
Method: Blood samples for PK analyses of DZD1516 and DZ2678 were collected on C0D1. Samples were obtained at pre-dose and at 0.5, 1, 1.5, 2, 2.5, 3, 4, 6, 8, 10, 24, 48, and 72 h after the dose, while for C1D15, samples were obtained at pre-dose and 0.5, 1, 1.5, 2, 2.5, 3, 4, 6, 8, and 10 h after the dose. CSF samples for PK analyses of DZD1516 and its metabolite DZ2678 were collected from patients with BM (C1D15) and LM (C1D15 and C3D1) at steady state (Additional file 1). Plasma and CSF samples were analyzed by LabCorp Madison laboratory (Madison, WI, USA) and LabCorp Shanghai laboratory (Shanghai, China) using a validated LC/MS/MS bioanalytical method to determine DZD1516 and DZ2678 concentrations. Non-compartmental PK analysis was performed using Phoenix WinNonlin (Certara USA Inc., version 8.3.3.33).
Blood samples for PK analyses of DZD1516 and DZ2678 were collected on C0D1 and C1D15.
Plasma concentrations of analytes evaluated in this study were determined using validated bioanalytical methods at Labcorp Madison lab (Madison, WI, USA) and Labcorp Shanghai lab (Shanghai, China). Concentrations of analytes in human plasma containing K2EDTA as an anticoagulant was determined using plasma precipitation, followed by analysis using high-performance LC-MS/MS detection. Two bioanalytical methods used […] of plasma and were linear over the range of 5.00 (the lower limit of quantification) to 5000 ng/mL for DZD1516 and 2.00 (the lower limit of quantification) to 2000 ng/mL for DZ2678 (Labcorp Shanghai lab), 1.96 (the lower limit of quantification) to 1960 ng/mL for DZ2678 (Labcorp Madison lab). The analysis runs for all analytes were determined to have a high degree of reproducibility and acceptably low inter-run carryover, which was considered acceptable for PK quantification. The plasma samples were stored at –70°C until analysis. PK analyses were performed by using Phoenix WinNonLin (Certara USA, Inc., Version 8.1 or higher).

T1 sequence (Q9UNQ0 whole entry): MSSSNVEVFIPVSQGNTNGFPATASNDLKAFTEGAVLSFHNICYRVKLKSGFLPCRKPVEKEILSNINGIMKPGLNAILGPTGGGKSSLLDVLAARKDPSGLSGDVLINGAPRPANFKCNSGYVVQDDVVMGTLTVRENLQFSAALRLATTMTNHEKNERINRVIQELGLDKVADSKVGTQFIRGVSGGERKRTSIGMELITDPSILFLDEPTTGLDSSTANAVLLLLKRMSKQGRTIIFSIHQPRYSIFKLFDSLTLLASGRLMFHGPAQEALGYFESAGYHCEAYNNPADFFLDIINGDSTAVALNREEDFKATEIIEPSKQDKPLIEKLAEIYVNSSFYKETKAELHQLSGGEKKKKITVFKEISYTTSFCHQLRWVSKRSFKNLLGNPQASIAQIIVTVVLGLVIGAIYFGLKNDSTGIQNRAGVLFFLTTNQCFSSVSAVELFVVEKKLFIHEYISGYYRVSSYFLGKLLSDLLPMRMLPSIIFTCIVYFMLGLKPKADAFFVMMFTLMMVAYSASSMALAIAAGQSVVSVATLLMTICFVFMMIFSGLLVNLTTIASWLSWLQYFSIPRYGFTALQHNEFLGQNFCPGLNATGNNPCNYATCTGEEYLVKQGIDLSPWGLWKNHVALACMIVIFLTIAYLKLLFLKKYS

In the case of `COc1cc(O[C@H]2CCN(C)CC2(F)F)c2c(Nc3ccc(Oc4ccn5ncnc5c4)c(C)c3)ncnc2c1` [DZD1516], the “Efflux ratio BCRP @1 µM” value (BCRP; 1 µM, listed as Cpd-5) is reported as 1.3, the efflux ratio at 120 min, 1 µM (BCRP; human, Caco-2, pH 7.4, 1 µM) is reported as < 2 and the efflux ratio at 1 µM (P-gp-BCRP; human, not told, 1 µM) is reported as 1.8. For the same molecule, the “active efflux via P-gp and BCRP” value (P-gp-BCRP; in vitro) was “do not undergo active efflux via P-gp and BCRP in vitro”, the Kp uu [1] was 4.1 and the TGI ([2]; 100 mg/kg twice daily) was 48%. For the same molecule, the TGI ([2]; 150 mg/kg twice daily) was 79%, the “Css,max, Geometric Mean [CV%]” value ([3]; Day 15, 250 mg BID DZD1516) was 1410[44.64] ng/mL and the “Css,min, Geometric Mean [CV%]” value ([3]; Day 15, 250 mg BID DZD1516) was 442.8[50.12] ng/mL. For the same molecule, the “tss,max, Median (Min, Max)” value ([3]; Day 15, 250 mg BID DZD1516) was 1.483(0.533,2.47) hr, the AUC(0-t) ([3]; human, plasma, oral, Day 1, 250 mg DZD1516, read-out: AUC0-10, Geometric Mean [CV%]) was 6160 ng·h/mL and the AUC(0-t) ([3]; human, plasma, oral, Day 1, 250 mg DZD1516, read-out: AUC0-72, Geometric Mean [CV%]) was 13200 ng·h/mL. The AUC(0-t) ([3]; human, plasma, oral, Day 15, 250 mg BID DZD1516, read-out: AUC0-10, Geometric Mean [CV%]) was 7560 ng·h/mL, the Cmax ([3]; human, plasma, oral, Day 1, 250 mg DZD1516, read-out: Cmax, Geometric Mean [CV%]) was 1330 ng/mL and the half-life ([3]; human, plasma, oral, Day 1, 250 mg DZD1516, read-out: t1/2, Mean (SD) (converted)) was 19.8 h. The Tmax ([3]; human, plasma, oral, Day 1, 250 mg DZD1516, read-out: tmax, Median (Min, Max)) was 2.85 h, the AUC ([3]; human, plasma, oral, Day 15, 250 mg BID DZD1516, read-out: AUCtau, Geometric Mean [CV%]) was 8340 ng·h/mL and the half-life ([3]; human, plasma, oral, patients, read-out: half-life) was 13.3 to 20.1 h. For the same molecule, the Tmax ([3]; human, plasma, patients, single oral administration 50 to 300 mg, read-out: median tmax) was 2.15 to 3.22 h and the accumulation ([3]; steady state, 15 days of twice daily dosing) was “approximately twofold”.
